Experimental data taken from patent US10246442B2, “4-Aminoquinazolin compounds as prolyl hydroxylase inhibitors” (JANSSEN PHARMACEUTICA NV, priority 2011, dated 2019).

Experiments:
[1] = system: Erythropoietin secretion, Hep-3B cells; assay: Cellular assay: EPO secretion in Hep-3B cells; type: cell-based; details: Homo sapiens, Hep3B, 100 μM compound, 24 hours, percent of EPO secretion relative to assay control compound 7-[(4-Chloro-phenyl)-(5-methyl-isoxazol-3-ylamino)-methyl]-quinolin-8-ol, read-out: Cellular % EPO Stimulation
Procedure: Hep-3B cells (ATCC, Manassas, Va.) were plated in 96-well plates at 20,000 cells per well in 100 μl of DMEM containing 10% fetal bovine serum, 1% non-essential amino acids, 50 IU/mL of penicillin and 50 μg/mL of streptomycin (all cell culture reagents from Invitrogen, Carlsbad, Calif.). Twenty-four hours after plating, compounds were added and incubated for an additional 24 hours. All compounds were tested with final compound concentrations at 100 μM. Fifty microliters of the supernatant was then transferred to a human Hypoxia assay kit (Meso-Scale Discovery, Gaithersburg, Md.). Erythropoietin in the supernatant was detected according to the manufacturer's instructions as follows. EPO detection plates were blocked with 3% BSA in PBS overnight and 50 μl of the supernatant was incubated at room temperature in an orbital shaker for 2 h. Twenty-five microliters of 0.5 μg/ml anti-EPO detection antibody was added for 2 hours at room temperature in an orbital shaker. After 3 washes in PBS, 150 μl of 1× read buffer is added and the plate is then read on the MSD SECTOR instrument. Data was analyzed by determining the percent of EPO secretion in the presence of 100 μM compound relative to an assay control compound, 7-[(4-Chloro-phenyl)-(5-methyl-isoxazol-3-ylamino)-methyl]-quinolin-8-ol.

PHD2181-417 = PHD2181-417 (Homo sapiens (Human), UniProt Q9GZT9); assay: PHD enzymatic assay ([14C]-succinic acid production); type: biochemical; details: purified PHD2181-417, HIF-1α peptide substrate, 30 min pre-incubation; average of results
Procedure: Expression and Purification of PHD2181-417
The human PHD2 expression construct containing amino acids 181-417 of GenBank Accession ID NM_022051 was cloned into a pBAD vector (Invitrogen), incorporating both an N-terminal histidine tag and a Smt3-tag, both of which are cleaved by Ulp1. Protein production was achieved by expression in BL21 cells grown in Terrific Broth containing 100 μg/ml ampicillin. Cell cultures were inoculated at 37° C. and grown to an OD600 of 0.8. Cultures were induced with 0.1% arabinose and grown overnight at 20° C. with continuous shaking at 225 rpm. Cells were then harvested by centrifugation and stored at −80° C. Cell pellets were suspended in Buffer A (50 mM Tris-HCl pH 7.2, 100 mM NaCl, 100 mM L-arginine, 1 mM TCEP, 0.05% (w/v) NP-40, 50 mM imidazole) followed by the addition of lysozyme and benzonase. Cells were lysed by sonication and the lysate was cleared by centrifugation (15,000 rpm, 90 min, 4° C.). The protein was purified by nickel affinity chromatography using a HisTrap Crude FF column (GE Healthcare). Samples were eluted in Buffer A with a 50-200 mM imidazole gradient. Cleavage of the Smt tag with Ulp1 protease was achieved via overnight incubation with dialyzing against Buffer A. The PHD2181-417 sample was then passed over a second HisTrap Crude FF column (GE Healthcare) to remove uncleaved protein. The flow-through was then dialyzed into 50 mM MES pH 6.0, 1 mM TCEP, 5 mM NaCl for ion exchange chromatography on a HiTrap SP Cation Exchange column (GE Healthcare). The PHD2181-417 protein was eluted with a 0-0.2 M NaCl gradient. Fractions were pooled for further purification by size exclusion chromatography over a Superdex 75 Size Exclusion Column (GE Healthcare). Final protein was concentrated to 4 mg/ml and dialyzed in 10 mM PIPES pH 7.0, 100 mM NaCl, 0.5 mM TCEP.
(10 μM, California Peptide Research Inc., Napa, Calif.), and [5-^14C]-2-oxoglutaric acid (50 mCi/mmol, Moravek Chemicals, Brea, Calif.) in reaction buffer (40 mM Tris-HCl, pH 7.5, 0.4 mg/ml catalase, 0.5 mM DTT, 1 mM ascorbate) for 10 minutes. Compounds were pre-incubated for 30 min before starting the reaction (all test compounds were dissolved at 10 mM in 100% DMSO (w/v) and were tested with final compound concentrations at 100 μM in 1% DMSO (w/v)). The reaction was stopped by addition of 50 μl of 70 mM H3PO4 and 50 μl of 500 mM NaH2PO4, pH 3.2. Detection of [^14C]-succinic acid was achieved by separating from [5-^14C]-2-oxoglutaric acid by incubating the reaction mixture with 100 μl of 0.16 M DNP prepared in 30% perchloric acid. Next, 50 μl of unlabeled 20 mM 2-oxoglutaric acid/20 mM succinic acid, serving as carrier for the radioactivity, was added to the mixture, and was allowed to proceed for 30 minutes at room temperature. The reaction was then incubated with 50 μl of 1 M 2-oxoglutaric acid for 30 additional minutes at room temperature to precipitate the excess DNP. The reaction was then centrifuged at 2800×g for 10 minutes at room temperature to separate [^14C]-succinic acid in the supernatant from the precipitated [^14C]-dinitrophenylhydrazone. Fractions of the supernatant (400 μI) were counted using a beta counter (Beckman Coulter, Fullerton, Calif.). Inhibition of PHD2181-417 activity was measured as a decrease in succinic acid production. The IC50 values were estimated by fitting the data to a three-parameter logistic function using GraphPad Prism, version 4.02 (Graph Pad Software, San Diego, Calif.).

PHD2181-417, sequence (Q9GZT9 181-417): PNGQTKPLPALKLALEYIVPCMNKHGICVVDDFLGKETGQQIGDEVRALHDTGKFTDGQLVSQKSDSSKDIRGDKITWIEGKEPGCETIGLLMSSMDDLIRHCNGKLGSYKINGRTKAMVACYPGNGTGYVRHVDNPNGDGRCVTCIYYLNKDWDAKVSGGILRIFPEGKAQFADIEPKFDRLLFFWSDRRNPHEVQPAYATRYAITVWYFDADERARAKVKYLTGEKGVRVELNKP

| Enzyme pIC50 (PHD2181-417) | Structure (SMILES) | activation at 100 µM [1] [%] |
| --- | --- | --- |
| 7.0 | Cc1cccc(C)c1Oc1cc2c(N3CCOCC3)nc(-n3cc(C(=O)O)cn3)nc2cc1F [Example 20, 1-(6-(2,6-Dimethylphenoxy)-7-fluoro-4-morpholinoquinazolin-2-yl)-1H-pyrazole-4-carboxylic acid] | 54 |
| 7.3 | CCN(CC)c1nc(-n2cc(C(=O)O)cn2)nc2ccc(Oc3ccc(Cl)cc3)cc12 [Example 60, 1-(6-(4-Chlorophenoxy)-4-(diethylamino)quinazolin-2-yl)-1H-pyrazole-4-carboxylic acid] | 22 |
| 7.6 | O=C(O)c1cnn(-c2nc(N3CCCCC3)c3cc(Oc4ccc(Cl)cc4)ccc3n2)c1 [Example 63, 1-(6-(4-Chlorophenoxy)-4-(piperidin-1-yl)quinazolin-2-yl)-1H-pyrazole-4-carboxylic acid] | 39 |
| 6.6 | O=C(O)c1cnn(-c2nc(N3CCOCC3)c3cc(OC4CCCCC4)c(F)cc3n2)c1 [Example 100, 1-(7-Fluoro-6-(cyclohexyloxy)-4-morpholinoquinazolin-2-yl)-1H-pyrazole-4-carboxylic acid] | 18 |
| 7.1 | O=C(O)c1cnn(-c2nc(N3CCCCC3)c3cc(C4CCCCC4)ccc3n2)c1 [Example 26, 1-(6-Cyclohexyl-4-(piperidin-1-yl)quinazolin-2-yl)-1H-pyrazole-4-carboxylic acid] | 20 |
| 7.2 | N#CNc1nc(-n2cc(C(=O)O)cn2)nc2ccc(C3CCCCC3)cc12 [Example 35, 1-(4-Cyanamido-6-cyclohexylquinazolin-2-yl)-1H-pyrazole-4-carboxylic acid] | 67 |
| 7.3 | O=C(O)c1cnn(-c2nc(N3CCCC3)c3cc(OC4CCCCC4)c(F)cc3n2)c1 [Example 103, 1-(7-fluoro-6-(cyclohexyloxy)-4-(pyrrolidin-1-yl)quinazolin-2-yl)-1H-pyrazole-4-carboxylic acid] | 31 |
| 7.2 | O=C(O)c1cnn(-c2nc(N3CCCC3)c3cc(Oc4ccccc4)ccc3n2)c1 [Example 73, 1-(6-Phenoxy-4-(pyrrolidin-1-yl)quinazolin-2-yl)-1H-pyrazole-4-carboxylic acid] | 36 |
| 7.4 | CN(C)c1nc(-n2cc(C(=O)O)cn2)nc2cc(Oc3ccccc3)ccc12 [Example 77, 1-(4-(Dimethylamino)-7-phenoxyquinazolin-2-yl)-1H-pyrazole-4-carboxylic acid] | 75 |
| 7.3 | CCN(C)c1nc(-n2cc(C(=O)O)cn2)nc2ccc(-c3ccccc3)cc12 [Example 42, 1-(4-(Ethyl(methyl)amino)-6-phenylquinazolin-2-yl)-1H-pyrazole-4-carboxylic acid] | 56 |
| 7.1 | O=C(O)c1cnn(-c2nc(N3CCCCCC3)c3cc(C4CCCCC4)ccc3n2)c1 [Example 37, 1-(4-(Azepan-1-yl)-6-cyclohexylquinazolin-2-yl)-1H-pyrazole-4-carboxylic acid] | 17 |
| 7.1 | CC(=O)NC1CCN(c2nc(-n3cc(C(=O)O)cn3)nc3ccc(Oc4ccc(Cl)cc4)cc23)CC1 [Example 70, 1-(4-(4-Acetamidopiperidin-1-yl)-6-(4-chlorophenoxy)quinazolin-2-yl)-1H-pyrazole-4-carboxylic acid] | 16 |

The next lines start with the compound.

| Structure (SMILES) | Enzyme pIC50 (PHD2181-417) | activation at 100 µM [1] [%] |
| --- | --- | --- |
| CN(C)c1nc(-n2cc(C(=O)O)cn2)nc2cc(Cl)c(OC3CCCCC3)cc12 [Example 137, 1-(7-chloro-6-(cyclohexyloxy)-4-(dimethylamino)quinazolin-2-yl)-1H-pyrazole-4-carboxylic acid] | 7.4 | 32 |
| CCN(CC)c1nc(-n2cc(C(=O)O)cn2)nc2ccc(C(C)C)cc12 [Example 186, 1-(4-(diethylamino)-6-isopropylquinazolin-2-yl)-1H-pyrazole-4-carboxylic acid] | 7.0 | 43 |
| CCN(CC)c1nc(-n2cc(C(=O)O)cn2)nc2cc(F)c(OC3CCCCC3)cc12 [Example 102, 1-(6-(Cyclohexyloxy)-4-(diethylamino)-7-fluoroquinazolin-2-yl)-1H-pyrazole-4-carboxylic acid] | 7.5 | 37 |
| CN(C)c1nc(-n2cc(C(=O)O)cn2)nc2ccc(C3CCCCC3)cc12 [Example 38, 1-(6-Cyclohexyl-4-(dimethylamino)quinazolin-2-yl)-1H-pyrazole-4-carboxylic acid] | 7.2 | 61 |
| CCN(C)c1nc(-n2cc(C(=O)O)cn2)nc2cc(F)c(OC3CCCCC3)cc12 [Example 104, 1-(7-fluoro-6-(cyclohexyloxy)-4-(ethyl(methyl)amino)quinazolin-2-yl)-1H-pyrazole-4-carboxylic acid] | 7.1 | 49 |
| CC(C)c1cc2c(N(C)C)nc(-n3cc(C(=O)O)cn3)nc2cc1Cl [Example 161, 1-(7-chloro-4-(dimethylamino)-6-isopropylquinazolin-2-yl)-1H-pyrazole-4-carboxylic acid] | 7.4 | 32 |
| CCN(CC)c1nc(-n2cc(C(=O)O)cn2)nc2cc(Cl)c(C(C)C)cc12 [Example 162, 1-(7-chloro-4-diethylamino-6-isopropylquinazolin-2-yl)-1H-pyrazole-4-carboxylic acid] | 7.2 | 40 |
| CCCNc1nc(-n2cc(C(=O)O)cn2)nc2cc(F)c(Oc3c(C)cccc3C)cc12 [Example 8, 1-[6-(2,6-Dimethyl-phenoxy)-7-fluoro-4-propylamino-quinazolin-2-yl]-1H-pyrazole-4-carboxylic acid] | 7.2 | 59 |
| CC(C)c1ccc2nc(-n3cc(C(=O)O)cn3)nc(NC3CC3)c2c1 [Example 188, 1-(4-(cyclopropylamino)-6-isopropylquinazolin-2-yl)-1H-pyrazole-4-carboxylic acid] | 6.0 | 35 |
| CCCN(CCC)c1nc(-n2cc(C(=O)O)cn2)nc2cc(F)c(Oc3c(C)cccc3C)cc12 [Example 12, 1-[6-(2,6-Dimethyl-phenoxy)-4-dipropylamino-7-fluoro-quinazolin-2-yl]-1H-pyrazole-4-carboxylic acid] | 7.4 | 9 |
